Molecules are shown by their SMILES.

Data set [1] is described as follows: Polymorph conversion upon heating or slurrying (thermodynamic stability of forms). The format is physicochemical. On the procedure:
Solutions of the compounds of the disclosure were prepared by adding enough solids to a given solvent so that excess solids were present. All forms described below can be obtained from various solvents, including, but not limited, to the specific solvents described in the Examples. The mixture was then agitated in a sealed vial at either ambient or elevated temperature. After a given amount of time, the solids were isolated by vacuum or centrifuge filtration and analyzed.
The crystalline anhydrous Form II and III described herein below convert to crystalline anhydrous Form I upon heating or slurrying.
Crystalline anhydrous Form III melts at 180° C.

Data set [2] in a line: Hygroscopicity (moisture uptake versus relative humidity). It is filed as physicochemical. The text has this: (§1) Within the pharmaceutical research and development field, the investigation of a suitable solid-state form represents a crucial step. Investigating a solid-state form comprises several decisions, mainly the investigation of an anhydrous, salt or co-crystal form and the investigation of a polymorph of the respective anhydrous, salt or co-crystal. During a lead optimization program, several properties of research compounds are optimized, typically leading to one or a few candidates that continue into exploratory development programs. Typically, in the assessment and optimization of physical chemical parameters during lead optimization, the main focus is on solubility. […] Beyond the optimization of solubility, further physical chemical parameters, such as (1) melting point, (2) thermal behavior, (3) hygroscopicity, (4) crystal habit, (5) polymorphic behavior or physical stability, (6) impurity profile, and (7) chemical stability of the anhydrous or salt form, must be borne in mind when investigating the salt. The melting point of a drug, either as a free base, acid or salt form, should be higher than a certain threshold to allow processing steps such as drying or tabletting. The assessment of thermal behavior, which is typically done by thermogravimetry (TGA) and differential scanning calorimetry (DSC), also includes solid-solid phase transitions. These may be either enantiotropic or monotropic and can be related to the conversion of one polymorph to another or one pseudo-polymorph to another pseudo-polymorph—e.g. a lower solvate or hydrate—or a true polymorph. Hygroscopicity plays a key role in the evaluation of solid-state forms, as this property is highly relevant for many process steps such as drying, storage, blending, granulation, to name but a few. Hygroscopicity can be investigated by dynamic vapor sorption (DVS). Basically, this technique yields information on the amount of moisture that is taken up by the compound at a certain relative humidity level. […]

Data set [3] has as its system KRAS^G12C tumors. The conditions noted are these: preclinical analyses, combination; cited from earlier work.
The test system of another data set is tumors. The conditions noted are these: first dosing cohorts; cited from earlier work.
Data set [4] concerns KRAS^G12C tumors. The note with it: alone as well as in combination with immune-checkpoint inhibitors; cited from earlier work.
A short description of the next data set: Solubility assessment. The format is physicochemical.
Source text: as §1, with “transitions.” for “transitions. These may be either enantiotropic or monotropic and can be related to the conversion of one polymorph to another or one pseudo-polymorph to another pseudo-polymorph—e.g. a lower solvate or hydrate—or a true polymorph. Hygroscopicity plays a key role in the evaluation of solid-state forms, as this property is highly relevant for many process steps such as drying, storage, blending, granulation, to name but a few. Hygroscopicity can be investigated by dynamic vapor sorption (DVS). Basically, this technique yields information on the amount of moisture that is taken up by the compound at a certain relative humidity level.”

A short description of data set [5]: Stability to ultraviolet and visible light in the solid state. It is filed as physicochemical. As to the method: (§2) Furthermore, crystalline anhydrous Form I was stable in an excipient compatibility study in 3 prototype blends that were stored for 4 weeks at 40° C./75% RH. Crystalline anhydrous Form I was also stable to ultraviolet and visible light in the solid state.

Data set [6] can be described thus: Solid state physical and chemical stability on storage (HPLC, XRPD, DSC, TGA). It is filed as physicochemical. The note with it: 14 weeks at 25° C./60% RH, 40° C./75% RH, 40° C./ambient RH, and 60° C./ambient RH.
Data set [7] in a line: Excipient compatibility study in 3 prototype blends. It is filed as physicochemical. The note with it: 3 prototype blends stored for 4 weeks at 40° C./75% RH. As to the method: as §2

In the case of `C=CC(=O)N1CCN(c2nc(=O)n(-c3c(C)ccnc3C(C)C)c3nc(-c4c(O)cccc4F)c(F)cc23)[C@@H](C)C1` [Form III, 6-fluoro-7-(2-fluoro-6-hydroxyphenyl)-1-(4-methyl-2-(2-propanyl)-3-pyridinyl)-4-((2S)-2-methyl-4-(2-propenoyl)-1-piperazinyl)pyrido[2,3-d]pyrimidin-2 (1H)-one], the form conversion result in [1] (upon melting and recrystallization at 220° C.) is reported as “converts to crystalline anhydrous Form I”. The same compound yielded a moisture absorbed in data set [2] (between 0-95% RH at 25° C.) of 7.0 % wt.

In the case of `C=CC(=O)N1CCN(c2nc(=O)n(-c3c(C)ccnc3C(C)C)c3nc(-c4c(O)cccc4F)c(F)cc23)[C@@H](C)C1` [Compound 1, 6-fluoro-7-(2-fluoro-6-hydroxyphenyl)-1-(4-methyl-2-(2-propanyl)-3-pyridinyl)-4-((2S)-2-methyl-4-(2-propenoyl)-1-piperazinyl)pyrido[2,3-d]pyrimidin-2 (1H)-one], the “effect on anti-tumor efficacy of chemotherapy and targeted agents” value in the data set on KRAS^G12C tumors [3] is “improved the anti-tumor efficacy of chemotherapy and targeted agents”. Further, in the data set with tumors, the “anti-tumor activity in clinical trials” value is reported as “demonstrated anti-tumor activity”. In addition, the “tumor outcome in immune-competent mice” value in the data set with KRAS^G12C tumors [4] was “produced durable cures”.

For the compound `C=CC(=O)N1CCN(c2nc(=O)n(-c3c(C)ccnc3C(C)C)c3nc(-c4c(O)cccc4F)c(F)cc23)[C@@H](C)C1` (atropisomer, axis not shown) [Compound 1, 6-fluoro-7-(2-fluoro-6-hydroxyphenyl)-1-(4-methyl-2-(2-propanyl)-3-pyridinyl)-4-((2S)-2-methyl-4-(2-propenoyl)-1-piperazinyl)pyrido[2,3-d]pyrimidin-2 (1H)-one], in “Solubility assessment”, the solubility result is “good solubility features”.

On to `C=CC(=O)N1CCN(c2nc(=O)n(-c3c(C)ccnc3C(C)C)c3nc(-c4c(O)cccc4F)c(F)cc23)[C@@H](C)C1` [Form I, 6-fluoro-7-(2-fluoro-6-hydroxyphenyl)-1-(4-methyl-2-(2-propanyl)-3-pyridinyl)-4-((2S)-2-methyl-4-(2-propenoyl)-1-piperazinyl)pyrido[2,3-d]pyrimidin-2 (1H)-one], for which the “stability to ultraviolet and visible light” value in data set [5] is recorded as “stable”. Further, in data set [1] (polymorph and salt screen), the “thermodynamic stability among polymorphs identified in the screening process” value was “most thermodynamically stable polymorph”. Also, the “physical and chemical stability in the solid state (no degradation peaks by HPLC, no changes in XRPD, DSC, TGA)” value in data set [6] was “physically and chemically stable”. Moreover, the moisture absorbed in [2] (between 0 and 90% RH at 25° C.) is 0.5-1.0 % wt. Further, the “stability in excipient compatibility study” value in data set [7] is recorded as “stable”.

In the case of `C=CC(=O)N1CCN(c2nc(=O)n(-c3c(C)ccnc3C(C)C)c3nc(-c4c(O)cccc4F)c(F)cc23)[C@@H](C)C1` [Form II, 6-fluoro-7-(2-fluoro-6-hydroxyphenyl)-1-(4-methyl-2-(2-propanyl)-3-pyridinyl)-4-((2S)-2-methyl-4-(2-propenoyl)-1-piperazinyl)pyrido[2,3-d]pyrimidin-2 (1H)-one], the form conversion entry in data set [1] (slurrying in water at 90° C. for 1 hour) is listed as “converts to crystalline anhydrous Form I”; in data set [1] (upon heating and recrystallization at 193° C.), “converts to crystalline anhydrous Form I”. Further, the moisture absorbed in [2] (between 0 and 90% RH at 25° C.) is on record as 2-2.5 % wt.
